The values below come from patent publication US11319299B2, “Substituted carboxamides as inhibitors of WDR5 protein-protein binding” (PROPELLON THERAPEUTICS INC., priority 2016, dated 2022).

In general, Kd refers to the concentration at which binding is half-saturated.

Bounds are passed on as bounds.

In one experiment the target is WDR5 (Homo sapiens (Human), UniProt P61964). Put plainly: Surface Plasmon Resonance (SPR) assay, KD and residence time. In kind it is binding. To be noted: surface plasmon resonance (SPR) assay; read-out: WDR5 binding affinity (KD). As for the experimental part:
(i) Surface Plasmon Resonance (SPR) Assay
The lifetime of a drug on its target is determined by two rate constants: the association rate constant (kon) and the dissociation rate constant (koff). In principle, the lifetime of the binary drug—target complex is thus extended by a rapid rate of drug binding and/or a slow rate of drug—target complex dissociation. The in vivo lifetime of a drug-target complex is most critically dependent on the value of the koff [Nat. Rev. Drug Discov. […] Drug Discov. […] Drug-target residence time is defined as the reciprocal of koff (τ=1/koff), making the residence time a parameter that is easily measured by routine in vitro assay methods.
For the compound `C[C@@H]1CN(c2cc(F)c(C3=CC4CCC(C3)N4C(=O)OC(C)(C)C)cc2NC(=O)c2cn(C)c(=O)cc2C(F)(F)F)C[C@H](C)N1C` (mixture of isomers) [Example 327, tert-butyl 3-[2-fluoro-5-[[-methyl-6-oxo-4-(trifluoromethyl)pyridine-3-carbonyl]amino]-4-[(3R,5S)-3,4,5-trimethylpiperazin-1-yl]phenyl]-8-azabicyclo[3.2.1]oct-2-ene-8-carboxylate], the Kd turned out to be 123 nM. The same measure, in the same setting: the value for `C[C@H]1CN(c2cc(F)c(-c3cnc(N4CCN(C)CC4)nc3)cc2NC(=O)c2ccc(F)cc2C(F)(F)F)C[C@H](C)N1C` (racemic) [Example 382, 4-fluoro-N-[4-fluoro-5-[2-(4-methylpiperazin-1-yl)pyrimidin-5-yl]-2-[(3R,5R)-3,4,5-trimethylpiperazin-1-yl]phenyl]-2-(trifluoromethyl)benzamide] was 117 nM; that for `C[C@H]1CN(c2cc(F)c(-c3cnc(N4CCOCC4)nc3)cc2NC(=O)c2ccc(F)cc2C(F)(F)F)C[C@H](C)N1C` (racemic) [Example 387, 4-fluoro-N-[4-fluoro-5-(2-morpholin-4-ylpyrimidin-5-yl)-2-[(3R,5R)-3,4,5-trimethylpiperazin-1-yl]phenyl]-2-(trifluoromethyl)benzamide] was 83.5 nM. In the case of `CC1CN(c2cc(F)c(-c3cnc(N4CCOCC4)nc3)cc2NC(=O)c2ccccc2)CCN1C` (stereo in doubt) [Example 78, N-[4-fluoro-5-(2-morpholin-4-ylpyrimidin-5-yl)-2-[(3R)-3,4-dimethylpiperazin-1-yl]phenyl]benzamide], the Kd worked out at 17.9 nM.

`CC1CN(c2cc(F)c(-c3cnc(N4CCOCC4)nc3)cc2NC(=O)c2ccco2)CCN1C` (stereo in doubt) [Example 79, N-[4-fluoro-5-(2-morpholin-4-ylpyrimidin-5-yl)-2-[(3R)-3,4-dimethylpiperazin-1-yl]phenyl]furan-2-carboxamide]: the Kd is more than 200 nM. On the same count and under the same terms, next, `CC1CN(c2cc(F)c(-c3cnc(N4CCOCC4)nc3)cc2NC(=O)c2cccnc2)CCN1C` (stereo in doubt) [Example 80, N-[4-fluoro-5-(2-morpholin-4-ylpyrimidin-5-yl)-2-[(3R)-3,4-dimethylpiperazin-1-yl]phenyl]pyridine-3-carboxamide]: more than 200 nM; `CC1CN(c2cc(Cl)c(-c3cnc(N4CCOCC4)nc3)cc2NC(=O)c2c[nH]c(=O)cc2C(F)(F)F)CCN1C` (stereo in doubt) [Example 81, N-[4-chloro-5-(2-morpholin-4-ylpyrimidin-5-yl)-2-[(3R)-3,4-dimethylpiperazin-1-yl]phenyl]-6-oxo-4-(trifluoromethyl)-1H-pyridine-3-carboxamide]: 11.1 nM; `CC1CN(c2cc(F)c(-c3cnc(N4CCOCC4)nc3)cc2NC(=O)c2nn(C)c3ccccc23)CCN1C` (stereo in doubt) [Example 116, N-[4-fluoro-5-(2-morpholin-4-ylpyrimidin-5-yl)-2-[(3R)-3,4-dimethylpiperazin-1-yl]phenyl]-1-methylindazole-3-carboxamide]: 76.8 nM. Still for that read-out and setting: the value for `CC1CN(c2cc(F)c(-c3ccc(N4CCOCC4)cc3)cc2NC(=O)c2nn(C)c3ccccc23)CCN1C` (stereo in doubt) [Example 117, N-[4-fluoro-5-(4-morpholin-4-ylphenyl)-2-[(3R)-3,4-dimethylpiperazin-1-yl]phenyl]-1-methylindazole-3-carboxamide] was 42.8 nM; that for `CC1CN(c2cc(F)c(-c3cnc(N4CCOCC4)nc3)cc2NC(=O)c2cnn(C)c2)CCN1C` (stereo in doubt) [Example 121, N-[4-fluoro-5-(2-morpholin-4-ylpyrimidin-5-yl)-2-[(3R)-3,4-dimethylpiperazin-1-yl]phenyl]-1-methylpyrazole-4-carboxamide] was 33.4 nM. The same measure, in the same setting: next, `CC1CN(c2cc(F)c(-c3ccc(N4CCOCC4)cc3)cc2NC(=O)c2cnn(C)c2)CCN1C` (stereo in doubt) [Example 122, N-[4-fluoro-5-(4-morpholin-4-ylphenyl)-2-[(3R)-3,4-dimethylpiperazin-1-yl]phenyl]-1-methylpyrazole-4-carboxamide]: 70.2 nM. In the case of `Cc1csc(C(=O)Nc2cc(-c3cnc(N4CCOCC4)nc3)c(F)cc2N2CCN(C)C(C)C2)n1` (stereo in doubt) [Example 181, N-[4-fluoro-5-(2-morpholin-4-ylpyrimidin-5-yl)-2-[(3R)-3,4-dimethylpiperazin-1-yl]phenyl]-4-methyl-1,3-thiazole-2-carboxamide], the Kd was more than 200 nM. Still for that read-out and setting: the value for `CC1CN(c2cc(F)c(-c3cnc(N4CCOCC4)nc3)cc2NC(=O)c2csc(CN(C)C)n2)CCN1C` (stereo in doubt) [Example 182, 2-[(dimethylamino)methyl]-N-[4-fluoro-5-(2-morpholin-4-ylpyrimidin-5-yl)-2-[(3R)-3,4-dimethylpiperazin-1-yl]phenyl]-1,3-thiazole-4-carboxamide] was more than 200 nM; that for `CC1CN(c2cc(F)c(-c3cnc(N4CCOCC4)nc3)cc2NC(=O)c2n[nH]cc2Cl)CCN1C` (stereo in doubt) [Example 183, 4-chloro-N-[4-fluoro-5-(2-morpholin-4-ylpyrimidin-5-yl)-2-[(3R)-3,4-dimethylpiperazin-1-yl]phenyl]-1H-pyrazole-3-carboxamide] was 113 nM.

Still in this experiment, the particulars now being: surface plasmon resonance (SPR); read-out: WDR5 binding affinity (KD).
For “4-(difluoromethyl)-N-[4-fluoro-5-[2-[(2R)-2-methylmorpholin-4-yl]pyrimidin-5-yl]-2-[(3S,5R)-3,4,5-trimethylpiperazin-1-yl]phenyl]-1-methyl-6-oxopyridine-3-carboxamide [Example 481]”, the Kd was found to be 4.89 nM. Same read-out and setting: next, “4-(difluoromethyl)-N-[4-fluoro-5-[6-(oxan-4-yloxy)pyridin-3-yl]-2-[(3R)-3,4-dimethylpiperazin-1-yl]phenyl]-6-oxo-1H-pyridine-3-carboxamide [Example 403]”: 1.16 nM; `C[C@@H]1CN(c2ccc(-c3cc(NC(=O)c4cn(C)c(=O)cc4C(F)(F)F)c(N4CCN(C)[C@@H](C)C4)cc3F)cn2)C[C@H](C)O1` (racemic) [Example 421, N-[4-fluoro-5-[6-[(2R,6S)-2,6-dimethylmorpholin-4-yl]pyridin-3-yl]-2-[(3R)-3,4-dimethylpiperazin-1-yl]phenyl]-1-methyl-6-oxo-4-(trifluoromethyl)pyridine-3-carboxamide]: 1.96 nM. On the same count and under the same terms, the value for `C[C@@H]1CN(c2ncc(-c3cc(NC(=O)c4cn(C)c(=O)cc4C(F)(F)F)c(N4CC[C@@H](N(C)C)C4)cc3F)cn2)C[C@H](C)O1` (racemic) [Example 426, N-[4-fluoro-2-[(3S)-3-(dimethylamino)pyrrolidin-1-yl]-5-[2-[(2R,6S)-2,6-dimethylmorpholin-4-yl]pyrimidin-5-yl]phenyl]-1-methyl-6-oxo-4-(trifluoromethyl)pyridine-3-carboxamide] was 10.9 nM. The same measure, in the same setting: next, `CCN(C)[C@@H]1CCN(c2cc(F)c(-c3cnc(N4C[C@@H](C)O[C@@H](C)C4)nc3)cc2NC(=O)c2cn(C)c(=O)cc2C(F)(F)F)C1` (racemic) [Example 427, N-[4-fluoro-5-[2-[(2R,6S)-2,6-dimethylmorpholin-4-yl]pyrimidin-5-yl]-2-[(3S)-3-[ethyl(methyl)amino]pyrrolidin-1-yl]phenyl]-1-methyl-6-oxo-4-(trifluoromethyl)pyridine-3-carboxamide]: 5.59 nM; `C[C@@H]1CN(c2cc(F)c(-c3ccc(N4CCO[C@@H](C)C4)nc3)cc2NC(=O)c2c[nH]c(=O)cc2C(F)(F)F)C[C@H](C)N1C` (racemic) [Example 434, N-[4-fluoro-5-[6-[(2R)-2-methylmorpholin-4-yl]pyridin-3-yl]-2-[(3S,5R)-3,4,5-trimethylpiperazin-1-yl]phenyl]-6-oxo-4-(trifluoromethyl)-1H-pyridine-3-carboxamide]: 0.617 nM.

For `C[C@@H]1CN(c2ncc(-c3cc(NC(=O)c4cn(C)c(=O)cc4C(F)F)c(N4CCN(C)[C@@H](C)C4)cc3F)cn2)CCO1` (racemic) [Example 460, 4-(difluoromethyl)-N-[4-fluoro-2-[(3S)-3,4-dimethylpiperazin-1-yl]-5-[2-[(2R)-2-methylmorpholin-4-yl]pyrimidin-5-yl]phenyl]-1-methyl-6-oxopyridine-3-carboxamide], the Kd was 3.43 nM. As to `C[C@H]1CN(c2cc(F)c(-c3cnc(N4CCOC[C@@H]4C)nc3)cc2NC(=O)c2cn(C)c(=O)cc2C(F)(F)F)CCN1C` (racemic) [Example 608, N-[4-fluoro-2-[(3R)-3,4-dimethylpiperazin-1-yl]-5-[2-[(3R)-3-methylmorpholin-4-yl]pyrimidin-5-yl]phenyl]-1-methyl-6-oxo-4-(trifluoromethyl)pyridine-3-carboxamide], the dissociation constant Kd was 0.977 nM. Still for that read-out and setting: next, `C[C@@H]1CN(c2nccc(-c3cc(NC(=O)c4c[nH]c(=O)cc4C(F)(F)F)c(N4C[C@@H](C)N(C)[C@@H](C)C4)cc3F)n2)CCO1` (racemic) [Example 691, N-[4-fluoro-5-[2-[(2R)-2-methylmorpholin-4-yl]pyrimidin-4-yl]-2-[(3R,5S)-3,4,5-trimethylpiperazin-1-yl]phenyl]-6-oxo-4-(trifluoromethyl)-H-pyridine-3-carboxamide]: 1.31 nM; `C[C@@H]1CN(c2cc(F)c(-c3ccnc(N4CCO[C@@H](C)C4)n3)cc2NC(=O)c2cn(C)c(=O)cc2C(F)(F)F)C[C@H](C)N1C` (racemic) [Example 694, N-[4-fluoro-5-[2-[(2R)-2-methylmorpholin-4-yl]pyrimidin-4-yl]-2-[(3S,5R)-3,4,5-trimethylpiperazin-1-yl]phenyl]-1-methyl-6-oxo-4-(trifluoromethyl)pyridine-3-carboxamide]: 4.92 nM.
